Source: ChEMBL document CHEMBL1201862, “PubChem BioAssay data set” (2004)
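Briefly, cells in 96-well plates were exposed to five compound concentrations for 48 h, and endpoints were estimated by linear interpolation. The concentration for 50% growth inhibition is given as GI50.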 Active and inactive are the calls of the source. No stated cut-off is given here; in the data, active = GI50 up to about 1.1 µM and inactive = higher.

Key:
Assay in all cases: growth of human tumour cells (NCI), 48 h
SK-OV-3 = system: SK-OV-3
HL-60 = system: HL-60
SR = system: SR
UO-31 = system: UO-31
COLO 205 = system: COLO 205
SNB-19 = system: SNB-19
DU-145 = system: DU-145
Hs-578T = system: Hs-578T
SK-MEL-5 = system: SK-MEL-5
PC-3 = system: PC-3
OVCAR-8 = system: OVCAR-8
UACC-62 = system: UACC-62
A498 = system: A498
HT-29 = system: HT-29
SF-268 = system: SF-268
NCI-H522 = system: NCI-H522
M14 = system: M14
MDA-N = system: MDA-N
SF-539 = system: SF-539
OVCAR-3 = system: OVCAR-3

Measured: GI50

O=C1CC2CC(CC3(CO3)C2)C1F (stereo not given)
inactive: SK-OV-3 > 100 µM | HL-60 > 100 µM | SR > 100 µM | UO-31 > 100 µM | COLO 205 > 100 µM | SNB-19 > 100 µM | DU-145 > 100 µM | Hs-578T > 100 µM | SK-MEL-5 > 100 µM | PC-3 > 100 µM | OVCAR-8 > 100 µM | UACC-62 > 100 µM | A498 > 100 µM | HT-29 > 100 µM | SF-268 > 100 µM | NCI-H522 > 100 µM | M14 > 100 µM | MDA-N > 100 µM

O=C1c2ccccc2C(=O)c2c(NC(=O)c3ccc4c5c(ncnc35)-c3ccccc3C4=O)cccc21
inactive: SK-OV-3 23.2 µM | SR 91.4 µM | UO-31 > 100 µM | COLO 205 > 100 µM | SNB-19 33.9 µM | DU-145 > 100 µM | SF-539 52.4 µM | Hs-578T 57.1 µM | SK-MEL-5 > 100 µM | PC-3 > 100 µM | OVCAR-3 37.1 µM | OVCAR-8 > 100 µM | UACC-62 > 100 µM | A498 40.6 µM | HT-29 > 100 µM | SF-268 97.5 µM | NCI-H522 > 100 µM | M14 > 100 µM | MDA-N > 100 µM

Nc1nc(=S)n(-c2ccc(Cl)cc2)c2nc3ccccc3cc12
inactive: SK-OV-3 22.7 µM | HL-60 > 100 µM | SR 16.1 µM | UO-31 33.6 µM | COLO 205 36 µM | SNB-19 > 100 µM | DU-145 43.6 µM | Hs-578T 83.2 µM | SK-MEL-5 51.8 µM | PC-3 46.8 µM | OVCAR-3 45 µM | OVCAR-8 50.1 µM | UACC-62 40.9 µM | A498 > 100 µM | HT-29 79.6 µM | SF-268 36.2 µM | NCI-H522 45.3 µM | M14 84.9 µM | MDA-N 90.8 µM

Cc1nc2c(-c3ccccc3)[nH]c(C)c2c(=O)o1
inactive: SK-OV-3 49.9 µM | HL-60 15.7 µM | SR > 100 µM | UO-31 4.94 µM | COLO 205 58.3 µM | SNB-19 > 100 µM | DU-145 76.2 µM | SF-539 56.5 µM | Hs-578T > 100 µM | SK-MEL-5 13.1 µM | PC-3 > 100 µM | OVCAR-8 41.5 µM | UACC-62 23.9 µM | A498 22.1 µM | HT-29 39.4 µM | SF-268 15.5 µM | NCI-H522 19.7 µM | M14 53.1 µM | MDA-N 45.6 µM

O=C(O)/C=C/c1c2ccc(=O)c(O)c-2oc2c(O)c(O)ccc12
inactive: SK-OV-3 98.4 µM | HL-60 82.2 µM | SR 31.8 µM | UO-31 33.9 µM | COLO 205 > 100 µM | SNB-19 > 100 µM | DU-145 > 100 µM | Hs-578T 58.6 µM | SK-MEL-5 54 µM | PC-3 > 100 µM | OVCAR-3 45 µM | OVCAR-8 40.1 µM | UACC-62 50.1 µM | A498 > 100 µM | HT-29 63.7 µM | SF-268 > 100 µM | NCI-H522 > 100 µM | M14 47.4 µM | MDA-N 16.1 µM

Cc1ccc(N2C(=O)C3c4[nH]c5ccccc5c4C4CCC(C(C)(C)C)CC4C3C2=O)cc1 (stereo not given)
inactive: SK-OV-3 14.9 µM | HL-60 7.62 µM | SR 6.05 µM | UO-31 14.9 µM | COLO 205 8.95 µM | SNB-19 8.75 µM | DU-145 2.48 µM | Hs-578T 4.1 µM | SK-MEL-5 16.8 µM | PC-3 13 µM | OVCAR-3 3.03 µM | OVCAR-8 7.71 µM | UACC-62 16.4 µM | A498 16.2 µM | HT-29 13 µM | SF-268 6.78 µM | NCI-H522 11.2 µM | M14 13.6 µM | MDA-N 16.8 µM

CCc1c(-c2ccc(OC)cc2)c(=O)oc2cc(O)ccc12
inactive: HL-60 16.7 µM | SR 16.7 µM | UO-31 19.9 µM | COLO 205 28.2 µM | SNB-19 56.1 µM | DU-145 33.2 µM | SF-539 44.1 µM | Hs-578T 30.7 µM | SK-MEL-5 14.8 µM | PC-3 24.7 µM | OVCAR-3 28.4 µM | OVCAR-8 49.1 µM | UACC-62 19.4 µM | A498 22.6 µM | HT-29 40.7 µM | SF-268 41.5 µM | NCI-H522 29.5 µM | M14 23.9 µM | MDA-N 28.1 µM

CCn1c(=O)c2c3cc(O)ccc3oc2c2ccc(O)cc21
inactive: SK-OV-3 43.6 µM | SR 18.2 µM | UO-31 19.3 µM | COLO 205 17.5 µM | SNB-19 21.9 µM | DU-145 29.4 µM | SF-539 16.7 µM | Hs-578T 5.46 µM | SK-MEL-5 17 µM | PC-3 31.1 µM | OVCAR-3 29.9 µM | OVCAR-8 36.7 µM | UACC-62 20.3 µM | A498 18.9 µM | HT-29 25.2 µM | SF-268 27.5 µM | NCI-H522 19.3 µM | M14 31.2 µM | MDA-N 30 µM

Cc1cc2c(O)nc(N)nc2nc1C
inactive: SK-OV-3 > 100 µM | HL-60 > 100 µM | SR > 100 µM | UO-31 > 100 µM | COLO 205 > 100 µM | SNB-19 > 100 µM | DU-145 > 100 µM | Hs-578T > 100 µM | SK-MEL-5 > 100 µM | PC-3 > 100 µM | OVCAR-3 > 100 µM | OVCAR-8 > 100 µM | UACC-62 > 100 µM | A498 > 100 µM | HT-29 > 100 µM | SF-268 > 100 µM | NCI-H522 > 100 µM | M14 > 100 µM | MDA-N > 100 µM

NCC(=O)Nc1ccccc1
inactive: SR > 100 µM | UO-31 > 100 µM | SNB-19 > 100 µM | DU-145 > 100 µM | Hs-578T > 100 µM | SK-MEL-5 > 100 µM | PC-3 > 100 µM | OVCAR-3 > 100 µM | OVCAR-8 > 100 µM | UACC-62 > 100 µM | A498 > 100 µM | HT-29 > 100 µM | SF-268 > 100 µM | NCI-H522 > 100 µM | M14 > 100 µM | MDA-N > 100 µM

O=C1Cc2c(-c3ccccc3)cc(-c3ccc4ccccc4c3)nc2-c2ccccc2N1
inactive: SK-OV-3 6.64 µM | SR 39.3 µM | UO-31 17.3 µM | COLO 205 31.9 µM | SNB-19 3.06 µM | DU-145 34.5 µM | SF-539 4.7 µM | Hs-578T 2.96 µM | SK-MEL-5 4.74 µM | PC-3 15.7 µM | OVCAR-3 8.05 µM | OVCAR-8 1.46 µM | UACC-62 10.7 µM | A498 12.7 µM | HT-29 3.31 µM | SF-268 4.29 µM | NCI-H522 3.25 µM | M14 9.2 µM | MDA-N 8.53 µM
